Results reported in a melting point compilation (Tetko et al.; mined from patent text by program, amines drawn as free bases though some values may be those of a salt).

`O=C(O)C1Cc2ccc(OCc3ccccc3)cc2O1` (centres undefined) showed a melting point of 118 to 119 °C.
`CC(C)CC1CNCCNCCNCCNCCN1` (centres undefined) gave a melting point of 70 to 76 °C.
With `Cc1cc(=O)n(O)c(C)c1Cc1ccccc1` the melting point was 165 °C.
With `CCC1CCCCN1CC(=O)NN=Cc1c(-c2ccccc2)nn2ccccc12` (centres undefined) the melting point was 156 to 158 °C.
`CCc1nc2c(N)nc3cc(CCCNS(C)(=O)=O)ccc3c2n1CC1CCOCC1` gave a melting point of 168 to 170 °C.
`CCCC(=O)Oc1ccc(C(=O)Nc2ccc3cc(CN4CCCC4)cnc3c2C)cc1` showed a melting point of 156 to 158 °C.
With `COc1ccc(CN2C(=O)[C@@H](N3C(=O)c4ccccc4C3=O)[C@H]2c2ccc(Cl)cc2)c(OC)c1` (relative stereo) the melting point was 178 to 180 °C.
Molecule `CS(=O)(=O)Nc1c(Br)cnn1-c1ccc(C(F)(F)F)cc1Cl` has a melting point of 63 to 65 °C.
`COc1ccc(C(=O)Nc2c(Cl)cncc2Cl)cc1OC1COCC1OCc1ccccc1` (centres undefined) gave a melting point of 190 to 191 °C.
`C/C(=N\O)[C@H]1CC[C@H]2[C@@H]3CCC4=CC(=O)CC[C@]4(C)[C@H]3CC[C@]12C` showed a melting point of 220 to 221 °C.
With `CCC(Oc1cc(C)ccc1C)C(=O)OC1CC(O)C=C2C=CC(C)C(CCC3CC(O)CC(=O)O3)C21` (mixture of isomers) the melting point was 138 to 140 °C.
For `CCCCNc1nn(C(=O)OC)c2c1c(=O)n(CCC)c1ccccc21`, the melting point was 147 to 149 °C.
For `Cc1ccc(S(=O)(=O)On2nnc3ccc([N+](=O)[O-])cc32)cc1`, the melting point was 142 to 144 °C.
`O=C(CNc1ccccc1)Nc1ccc(F)cc1C(=O)O` gave a melting point of 194 to 195 °C.
With `O=C(Nc1cccc([N+](=O)[O-])c1)C(=O)N1CCC(Cc2ccccc2)CC1` the melting point was 138 to 140 °C.
Molecule `CC(=O)N1CCc2c(c3ccc(-n4ccc(OCc5ccccc5)cc4=O)cc3n2C)C1` has a melting point of 225 to 230 °C.
`Cc1c(-c2cc(C(F)(F)F)cc(C(F)(F)F)c2)ccc2nc(N=CN(C)C)nc(N=CN(C)C)c12` showed a melting point of 208 to 210 °C.
Work on `CCCCCCCC(=O)Nc1ccn(C2OC(CO)C(O)C2O)c(=O)n1` (centres undefined) yielded a melting point of 151 to 153 °C.
With `CN(C)S(=O)(=O)NC1CCC(CCN2CCN(c3nccc4c3OCC4)CC2)CC1` (centres undefined) the melting point was 128 °C.
Work on `NS(=O)(=O)c1cc2c(cc1Cl)NC(CCCCCO)NS2(=O)=O` (centres undefined) yielded a melting point of 190 °C.
Molecule `CCCN1C(=O)C2(c3ccc(N)cc3)CC(c3ccc(N)cc3)(C2)C1=O` has a melting point of 149 to 150 °C.
`COc1ccc(N(C(=O)CN2C(=O)C(Cc3n[nH]c4ncccc34)C(=O)N(c3ccccc3)c3ccccc32)C(C)C)cc1` (centres undefined) showed a melting point of 156 to 158 °C.
With `CN(CCc1ccc(O)cc1)[C@H]1CC[C@H](c2ccccc2)CC1` the melting point was 97 to 105 °C.
With `CC(=O)NC(Cc1ccccc1)C(=O)Nc1c(C)cccc1C` (centres undefined) the melting point was 217 to 218 °C.
For `CCCC1CCc2c(c(F)c(F)c3oc(C)cc23)O1` (centres undefined), the melting point was 75 °C.
`COc1c(NOCc2ccccc2)ccnc1C` showed a melting point of 130 °C.
With `N[C@H]1C[C@H]2[C@H](C(=O)O)[C@H]2[C@]1(N)C(=O)O` the melting point was > 250 °C.
`CCOC(=O)c1sc(S(C)(=O)=O)c2c1CCc1cnn(C)c1-2` gave a melting point of 140 to 141 °C.
Work on `COc1ccc(CN(C)CCCOc2ccc(NC(=O)c3cccc4c(=O)c5ccccc5[nH]c34)c(C)c2)cc1OC` yielded a melting point of 145 to 150 °C.
With `CC(C)(C)C(=O)C=C(C(=O)C(C)(C)C)n1cncn1` the melting point was 107 to 108 °C.
Molecule `O=c1[nH]c2ccccc2c2c(CCO)n(-c3ccccc3)nc12` has a melting point of 310 to 312 °C.
Molecule `CON(C)C(=O)c1ccoc1` has a melting point of 39 to 42 °C.
Work on `C#Cc1ccc(C(O)C2C(c3ccccc3)CC(=O)N2C)s1` (centres undefined) yielded a melting point of 187 °C.
Molecule `CSc1ccc(-c2coc3ccc(-c4nnc(C)o4)cc23)cc1F` has a melting point of 179 to 180 °C.
With `CCCCn1nc2c(N)nc3ncccc3c2c1CC(C)C` the melting point was 219 to 222 °C.
Molecule `Cn1nc(-c2ccc(Br)cc2)c2ccccc2c1=O` has a melting point of 168 to 170 °C.
For `Cc1c(NC(=O)c2cccc(OCCN)c2)c2ccccn2c1C(=O)c1ccc(NC(=O)C(F)(F)F)c(C(=O)OCc2ccccc2)c1`, the melting point was 219 °C.
`CCOC(=O)c1nc2ccc([N+](=O)[O-])cc2c(O)c1C(=O)OCC` gave a melting point of 264 °C.
Work on `C=C(Cc1ccccc1C)C(=O)O` yielded a melting point of 82 to 83 °C.
`CN(C)C1CC=C(c2c[nH]c3ccc(N)cc23)CC1` (centres undefined) gave a melting point of 63 to 65 °C.
For `COC(=O)C1CCCn2c(=O)n(CSC(C)=O)c(=O)n21` (centres undefined), the melting point was 100 to 102 °C.
Molecule `Cc1cc(S)c(C)c(C)c1O` has a melting point of 86 °C.
Molecule `Nc1c(OCc2ccccc2)cc(Br)cc1[N+](=O)[O-]` has a melting point of 90 °C.
Molecule `O=C(O)c1c(Cl)ccc2cc(C(F)(F)F)cnc12` has a melting point of 250 °C.
With `CC(=O)Nc1ccc(-c2cc3cccc(C(=O)OCCN4CCCCC4)c3o2)cc1` the melting point was 155 to 157 °C.
For `CC(=O)c1c[nH]cc1-c1cccc(Cl)c1Cl`, the melting point was 192 to 194 °C.
Molecule `COC[C@H]1CCCN1NC(=O)Nc1cccc2c1C(=O)c1c-2n[nH]c1-c1ccc(C(=O)N2CCN(C)CC2)s1` has a melting point of 181 to 183 °C.
`CCOc1ccc2c(c1)n(C1CCCCC1)c(=O)n2S(=O)(=O)c1ccc(NC(=O)N(C)C(C)(C)C)cc1OC` gave a melting point of 208 °C.
Work on `CCCOc1ccccc1-c1nc2cc(SC)ccc2c(=O)[nH]1` yielded a melting point of 156 to 158 °C.
